Source: US8377636B2, “Biological markers predictive of anti-cancer response to kinase inhibitors” (OSI Pharmaceuticals, LLC, priority 2007, dated 2013)

How the values were obtained:
[1] = system: ERK MAP kinase and AKT pathways in Calu1 cells; experiment: Intracellular signaling, immunoblot of pERK and pAKT; type: cell-based, human; conditions: presence or absence of exogenously added ligand
Experimental: (§1) The human NSCLC lines H1299, H266, H522, H650, H1437, H1155, Calu1, Hop92, H23, H292, H358, H322, H441, A549, Calu6, H460, H1703 and SW1573 were cultured in the appropriate ATCC recommended supplemented media. Cell extracts were prepared by detergent lysis (50 mM Tris-HCl, pH8, 150 mM NaCl, 1% NP-40, 0.5% NaDeoxycholate, 0.1% SDS) containing protease and phosphatase inhibitors. The soluble protein concentration was determined by micro-BSA assay (Pierce, Rockford Ill.). In experiments monitoring serum stimulation, cells were grown in media with 0.5% FBS for 24 hours followed by addition of FBS to a final concentration of 10% for 10 minutes prior to lysis. In experiments where inhibitor treatment was required, inhibitor was added at the indicated concentration and the cells the stimulated with the indicated ligand. For cell proliferation assays cells were plated, inhibitor added and proliferation measured after 72 hours using the CELLTITERGLO™ cell viability assay (Promega, Madison Wis.).
Protein immunodetection was performed by electrophoretic transfer of SDS-PAGE separated proteins to nitrocellulose, incubation with antibody and chemiluminescent detection (PicoWest; Pierce, Rockford, Ill.). […]

H1703 cells [2] = experiment: Cell proliferation, CellTitreGlo assay; type: cell-based, human
Experimental: (§2) FIG. 3: Inhibition of PDGFR activity in NSCLC. A. H1703 cells were treated with increasing concentrations of PDGFR inhibitor 1 (OSI-930) (▪), PDGFR inhibitor 2 (▴) or an EGFR inhibitor (erlotinib) (▾). After 72 hours incubation proliferation of the cells was measured by CellTitreGlo assay and plotted as a % proliferation relative to untreated cells. B. H1703 cells were treated with the PDGFR inhibitor OSI-930 for 2 hours and then left untreated or treated with PDGF (10 ng/ml) for 15 mins. Protein extracts were prepared and immunoblots probed with the indicated antibodies C. H1703 and Calu1 cells were treated with either 1 or 5 μM of PDGFR inhibitor OSI-930 and the effect on closure of the wound analysed after 24 hrs.
(§3) FIG. 6: Inhibition of FGFR activity in NSCLC. A. H1703 (▪), Calu1 (▴) and H226 (▾) cells were treated with increasing concentrations of FGFR inhibitor (PD173074). After 72 hours incubation proliferation of the cells was measured by CellTitreGlo assay and plotted as a % proliferation relative to untreated cells.
as §1

[3] = system: ERK MAP kinase and AKT pathways in H226 cells; experiment: Intracellular signaling, immunoblot of pERK and pAKT; type: cell-based, human
Experimental: (§4) FIG. 7: Inhibition of FGFR Signaling in H1703 and H226 NSCLC Cells. H1703 and H226 cells were treated with either […] PD173074 for 2 hours and then left untreated (CON) or treated with 10 ng/ml FGF for 15 min (FGF). Cell lysates were prepared and immunoblots using antibodies against pERK, total ERK, pAKT (ser473), total AKT and β-actin were performed.
as §1, with “Wis.). […]” for “Wis.).”

[4] = system: ERK MAP kinase and AKT pathways in H1703 cells; experiment: as above; type: cell-based, human; set-up: AKT pathway inhibition: dose or concentration left out as unconfirmed
Experimental: as §2, §4
as §1, with “Wis.). […]” for “Wis.).”

Calu1 cells [5] = experiment: Cell proliferation, CellTitreGlo assay; type: cell-based, human
Experimental: as §3, §1

H226 cells = experiment: Cell proliferation, CellTitreGlo assay; type: cell-based, human
Experimental: as §3, §1

HOP92 NSCLC cell line = experiment: Sensitivity of tumor cells to EGFR kinase inhibitor; type: cell-based, human; conditions: phenotype Mesenchymal-like
Experimental: as §1

H322 NSCLC cell line = experiment: as above; type: cell-based, human; conditions: phenotype Epithelial
Experimental: as §1

H1155 NSCLC cell line = experiment: as above; type: cell-based, human; conditions: phenotype Mesenchymal-like
Experimental: as §1

H23 NSCLC cell line = experiment: as above; type: cell-based, human; conditions: phenotype Mesenchymal-like
Experimental: as §1

CALU1 NSCLC cell line = experiment: as above; type: cell-based, human; conditions: phenotype Mesenchymal-like
Experimental: as §1

H650 NSCLC cell line = experiment: as above; type: cell-based, human; conditions: phenotype Mesenchymal-like
Experimental: as §1

CALU6 NSCLC cell line = experiment: as above; type: cell-based, human; conditions: phenotype Mesenchymal-like
Experimental: as §1

SW1573 NSCLC cell line = experiment: as above; type: cell-based, human; conditions: phenotype Mesenchymal-like
Experimental: as §1

A549 NSCLC cell line = experiment: as above; type: cell-based, human; conditions: phenotype Mixed
Experimental: as §1

H358 NSCLC cell line = experiment: as above; type: cell-based, human; conditions: phenotype Epithelial
Experimental: as §1

H460 NSCLC cell line = experiment: as above; type: cell-based, human; conditions: phenotype Mesenchymal-like
Experimental: as §1

H1703 NSCLC cell line = experiment: as above; type: cell-based, human; conditions: phenotype Mesenchymal-like
Experimental: as §1

H226 NSCLC cell line = experiment: as above; type: cell-based, human; conditions: phenotype Mesenchymal-like
Experimental: as §1

H441 NSCLC cell line = experiment: as above; type: cell-based, human; conditions: phenotype Epithelial
Experimental: as §1

H522 NSCLC cell line = experiment: as above; type: cell-based, human; conditions: phenotype Mesenchymal-like
Experimental: as §1

H1299 NSCLC cell line = experiment: as above; type: cell-based, human; conditions: phenotype Mesenchymal-like
Experimental: as §1

H1437 NSCLC cell line = experiment: as above; type: cell-based, human; conditions: phenotype Epithelial
Experimental: as §1

H292 NSCLC cell line = experiment: as above; type: cell-based, human; conditions: phenotype Epithelial
Experimental: as §1

Calu6 NSCLC xenograft = experiment: Xenograft tumor growth inhibition; type: in vivo, CD-1 nu/nu mice; conditions: Calu6 xenograft in mice; 100 mg/kg once a day for 14 days, oral gavage
Experimental: (§5) FIG. 9: Sensitivity of NSCLC cell lines to erlotinib In Vivo. Female CD-1 nu/nu mice were implanted with H292 or Calu6 cells and tumor allowed to grow to 200 mm^3. Animals were then either left untreated or treated with 100 mg/kg erlotinib once a day for 14 days. Tumor volume was measured twice weekly.
(§6) Female CD-1 nu/nu mice (Charles River Laboratories, Wilmington, Mass.) were implanted with harvested NSCLC tumor cells in a single subcutaneous site on the flank of the mice in the axillary region. Tumors were allowed to grow to 200±50 mm^3, at which time the animals were sorted into treatment groups of 8 animals per group based on weight (±1 g body weight) and tattooed on the tail for permanent identification. Tumor volumes and body weights were determined twice weekly. The tumor volume was determined by measuring in two directions with vernier calipers and calculated using the formula: Tumor volume=(length×width^2)/2. The data were plotted as the % change in mean values of tumor volume and body weight for each group. The tumor growth inhibition (% TGI) was determined as % TGI=[…]: where Wt is the median tumor volume of the treated group at time x and Wc is the median tumor volume of the control group at time x. TARCEVA® was dosed in a 6% Captisol (CyDex, Inc) in WFI (Water for Injection) solution and all control animals were dosed with an equal volume of the vehicle. […]

H292 NSCLC xenograft = experiment: Xenograft tumor growth inhibition; type: in vivo, CD-1 nu/nu mice; conditions: H292 xenograft in mice; 100 mg/kg once a day for 14 days, oral gavage
Experimental: as §5, §6

H358 cells = experiment: Cell proliferation, CellTitreGlo assay; type: cell-based, human
Experimental: as §1

H1703 cells [6] = experiment: Cell motility, closure of the wound; type: cell-based, human; conditions: 1 or 5 μM, 24 hrs
Experimental: as §2

Calu1 cells [7] = experiment: Cell motility, closure of the wound; type: cell-based, human; conditions: 1 or 5 μM, 24 hrs
Experimental: as §2

[8] = increasing concentrations, 72 hours
[9] = for 2 hours, basal and FGF (10 ng/ml, 15 min) stimulated
[10] = 0.5% FCS and PDGF (mixed AA, AB and BB forms) added

Compound: CCN(CC)CCCCNc1ncc2cc(-c3cc(OC)cc(OC)c3)c(NC(=O)NC(C)(C)C)nc2n1 [PD173074]
- Signaling (ERK, AKT) [1]: unaffected
- Growth inhibition (proliferation) (H1703 cells [2]; [8]): growth inhibited
- Activation of the ERK MAP kinase pathway [3, 9]: inhibited
- Activation of the ERK MAP kinase pathway [4, 9]: inhibited
- AKT pathway inhibition ([4]; for 2 hours, basal and FGF stimulated): only inhibited after ligand stimulation
- Growth inhibition (proliferation) (Calu1 cells [5]; [8]): little effect
- Growth inhibition (proliferation) (H226 cells; [8]): growth inhibited

Compound: C#Cc1cccc(Nc2ncnc3cc(OCCOC)c(OCCOC)cc23)c1 [Erlotinib, [6,7-bis(2-methoxyethoxy)-4-quinazolin-4-yl]-(3-ethynylphenyl) amine]
- Erlotinib Senistivity (HOP92 NSCLC cell line): Insensitive
- Erlotinib Senistivity (HOP92 NSCLC cell line; listed as erlotinib): insensitive
- Erlotinib Senistivity (H322 NSCLC cell line): Sensitive
- Erlotinib Senistivity (H1155 NSCLC cell line): Insensitive
- Erlotinib Senistivity (H23 NSCLC cell line): Insensitive
- Erlotinib Senistivity (H23 NSCLC cell line; listed as erlotinib): insensitive
- Erlotinib Senistivity (CALU1 NSCLC cell line): Insensitive
- Erlotinib Senistivity (H650 NSCLC cell line): Insensitive
- Erlotinib Senistivity (CALU6 NSCLC cell line): Insensitive
- Erlotinib Senistivity (SW1573 NSCLC cell line): Insensitive
- Erlotinib Senistivity (A549 NSCLC cell line): Intermediate
- Erlotinib Senistivity (H358 NSCLC cell line): Sensitive
- Erlotinib Senistivity (H460 NSCLC cell line): Insensitive
- Erlotinib Senistivity (H1703 NSCLC cell line): Insensitive
- Erlotinib Senistivity (H1703 NSCLC cell line; listed as erlotinib): insensitive
- Erlotinib Senistivity (H226 NSCLC cell line): Insensitive
- Erlotinib Senistivity (H441 NSCLC cell line): Sensitive
- Erlotinib Senistivity (H522 NSCLC cell line): Insensitive
- Erlotinib Senistivity (H1299 NSCLC cell line): Insensitive
- Erlotinib Senistivity (H1437 NSCLC cell line): Insensitive
- Erlotinib Senistivity (H292 NSCLC cell line): Sensitive
- Xenograft growth, tumor volume (Calu6 NSCLC xenograft): insensitive to EGFR inhibition
- Xenograft growth, tumor volume (H292 NSCLC xenograft): sensitive to EGFR inhibition and shows a reduction in tumor volume during the dosing period

Compound: O=C(Nc1ccc(OC(F)(F)F)cc1)c1sccc1NCc1ccnc2ccccc12 [OSI-930]
- Inhibition of cell growth (proliferation) (H358 cells; [10]): failed to show any enhanced growth inhibition
- Inhibition of cell growth (proliferation) (H358 cells; 10% FCS, 72 hours): only observed in H1703 cells
- Inhibition of cell growth (proliferation) (H1703 cells [2]; [10]): inhibited more potently
- Inhibition of cell growth (proliferation) (H1703 cells [2]; 10% FCS, 72 hours): Inhibition of cell growth
- Inhibition of ERK and AKT pathways ([3]; basal and PDGF ligand stimulated): only showed ligand induced inhibition of ERK and AKT pathways
- Phosphorylation of ERK MAP kinase and AKT (serine 473) ([4]; inhibitor 2 hours, basal (10% FCS) and ligand stimulated (PDGF 10 ng/ml, 15 mins)): reduced phosphorylation of ERK MAP kinase and AKT (on serine 473)
- Inhibition of cell growth (proliferation) (Calu1 cells [5]; [10]): failed to show any enhanced growth inhibition
- Inhibition of cell growth (proliferation) (Calu1 cells [5]; 10% FCS, 72 hours): not growth inhibited
- Inhibition of cell growth (proliferation) (H226 cells; [10]): failed to show any enhanced growth inhibition
- Inhibition of cell growth (proliferation) (H226 cells; 10% FCS, 72 hours): not growth inhibited
- Cell motility (closure of the wound) (H1703 cells [6]): inhibition of cell motility
- Cell motility (closure of the wound) (Calu1 cells [7]): inhibition of cell motility
